Laboratory results from the supplement of paper PMC10307832.

Experiments:
Experiment in all cases: relative viability (nuclei count vs DMSO), 5 days (fraction); higher = more cells survive
[1] = compound: C1COCCN1C2=NC(=NC3=C2OC4=C3C=CC=N4)C5=CC(=CC=C5)NC(=O)C6=CN=C(C=C6)N + CS(=O)(=O)N1CCN(Cc2cc3nc(-c4cccc5[nH]ncc45)nc(N4CCOCC4)c3s2)CC1 [Pictilisib] (partner 1 µM)
Summary of the method: (§1)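 Lung cancer cell lines in 1536-well plates got either a single drug or a fixed anchor-drug dose together with five library-drug doses (not always all listed) in √10 steps, by pin tool, on the day after seeding. Nuclei were counted after 5 days, and relative viability is the treated-to-vehicle ratio of nuclei counts. Values are medians of duplicate plates.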

[2] = compound: Nc1ccccc1NC(=O)c1ccc(CNC(=O)OCc2cccnc2)cc1 [Entinostat] + CC(=O)c1c(C)c2cnc(Nc3ccc(N4CCNCC4)cn3)nc2n(C2CCCC2)c1=O [Palbociclib] (partner 0.5 µM)
Summary of the method: as §1

[3] = compound: Nc1ccccc1NC(=O)c1ccc(CNC(=O)OCc2cccnc2)cc1 [Entinostat] + NC(=O)Nc1cc(-c2cccc(F)c2)sc1C(=O)N[C@H]1CCCNC1 [AZD7762] (partner 0.2 µM)
Summary of the method: as §1

[4] = compound: Nc1ccccc1NC(=O)c1ccc(CNC(=O)OCc2cccnc2)cc1 [Entinostat] + CC(=O)Nc1cccc(-n2c(=O)n(C3CC3)c(=O)c3c(Nc4ccc(I)cc4F)n(C)c(=O)c(C)c32)c1 [Trametinib] (partner 0.02 µM)
Summary of the method: as §1

Cell Line	relative viability ([1]; first compound 0.02 µM)	relative viability ([1]; first compound 0.06325 µM)	relative viability ([1]; first compound 0.2 µM)	relative viability ([1]; first compound 0.6325 µM)	relative viability ([1]; first compound 2 µM)	relative viability ([2]; first compound 0.02 µM)	relative viability ([2]; first compound 0.06325 µM)	relative viability ([2]; first compound 0.2 µM)	relative viability ([2]; first compound 0.6325 µM)	relative viability ([2]; first compound 2 µM)	relative viability ([3]; first compound 0.02 µM)	relative viability ([3]; first compound 0.06325 µM)	relative viability ([3]; first compound 0.2 µM)	relative viability ([3]; first compound 0.6325 µM)	relative viability ([3]; first compound 2 µM)	relative viability ([4]; first compound 0.02 µM)	relative viability ([4]; first compound 0.06325 µM)	relative viability ([4]; first compound 0.2 µM)	relative viability ([4]; first compound 0.6325 µM)	relative viability ([4]; first compound 2 µM)
201T	0.661	0.66	0.654	0.735	0.696	0.384	0.376	0.426	0.378	0.373	0.694	0.711	0.601	0.402	0.328	0.746	0.72	0.684	0.716	0.545
A549	0.628	0.577	0.397	0.391	0.24	–	–	–	–	–	–	–	–	–	–	–	–	–	–	–
A-427	0.696	0.621	0.675	0.653	0.507	0.555	0.537	0.463	0.401	0.368	0.703	0.775	0.731	0.584	0.428	0.882	0.921	0.866	0.639	0.523
ABC-1	0.711	0.717	0.773	0.768	0.609	0.591	0.788	0.61	0.658	0.41	0.803	0.727	0.951	0.86	0.59	–	–	–	–	–
BEN	0.587	0.556	0.597	0.501	0.589	0.543	0.466	0.457	0.454	0.4	0.771	0.714	0.685	0.602	0.464	1.18	1.04	0.79	0.63	0.441
CAL-12T	0.464	0.479	0.391	0.356	0.455	0.516	0.602	0.637	0.384	0.266	0.775	0.578	0.67	0.642	0.464	0.362	0.306	0.355	0.297	0.252
COR-L23	1.02	1.21	0.845	0.843	0.574	0.31	0.249	0.253	0.139	0.0938	–	–	–	–	–	0.507	0.614	0.544	0.318	0.189
COR-L 105	0.433	0.351	0.389	0.344	0.33	0.376	0.406	0.38	0.43	0.355	–	–	–	–	–	0.475	0.45	0.45	0.413	0.406
Calu-6	1.03	0.932	0.87	0.888	0.472	–	–	–	–	–	–	–	–	–	–	–	–	–	–	–
ChaGo-K-1	0.789	0.61	0.547	0.633	0.624	0.976	0.931	0.989	0.852	0.75	0.872	0.861	0.962	0.897	0.692	0.948	0.933	0.897	0.785	0.64
EBC-1	0.409	0.432	0.307	0.295	0.293	–	–	–	–	–	–	–	–	–	–	–	–	–	–	–
